Results taken from patent publication US12605404B2, “Synthetic cellular membrane chemical ionophore delivery system comprising hexa-aqua ligand compositions” (priority 2021, dated 2026).

Test system: Staphylococcus aureus (MRSA)
Assay: Broth Microdilution (CLSI-BMD), non-biofilm, 10 MRSA isolates
Type: cell-based
Text: A non-biofilm antimicrobial assay using the broth microdilution-based sensitivity method was completed at the University of Debrecen, Hungary. […] A percentage solution calculation established that twice the amount of vancomycin was needed to create the same 50% turbidity reduction in MRSA when tested in comparison to ZC-1.

SMILES: CN[C@H](CC(C)C)C(=O)N[C@H]1C(=O)N[C@@H](CC(N)=O)C(=O)N[C@H]2C(=O)N[C@H]3C(=O)N[C@H](C(=O)N[C@H](C(=O)O)c4cc(O)cc(O)c4-c4cc3ccc4O)[C@H](O)c3ccc(c(Cl)c3)Oc3cc2cc(c3O[C@@H]2O[C@H](CO)[C@@H](O)[C@H](O)[C@H]2O[C@H]2C[C@](C)(N)[C@H](O)[C@H](C)O2)Oc2ccc(cc2Cl)[C@H]1O [Vancomycin]
- MIC values, range (control, 10 MRSA isolates): 4 to 16 µg/mL
- amount needed for the same 50% turbidity reduction in MRSA, in comparison to ZC-1 (percentage solution calculation): twice
